Laboratory results as given in patent US20020137929A1, “1 - (3-heterocyclylphenyl) isothiourea, -isourea, -guanidine and -amidine herbicidal agents” (Intellectual Property Department, BASF Aktiengesellschaft, priority 1998, published 2002).

Assays:
[1] = tested on: ECHORC (Watergrass (Calif.)); experiment: Postemergence weed control under flooded paddy conditions; format: in vivo, Echinochloa oryzoides; details: postemergence weeds, 3-4 weeks after treatment
Method in brief: (§1)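 Flood-water application, about 0.0313–0.500 kg/ha a.i. in aqueous/acetone 50/50 v/v; water depth 1.5–3 cm throughout. Weeds 3–5 cm, rice 1.5–2.5 leaf. Greenhouse; 0–9 visual rating vs control at 3–4 wk.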

[2] = tested on: GLXMAW (Soybean, Williams); experiment: Postemergence herbicidal evaluation; format: in vivo, Glycine max, (L.) Merr. cv Williams
Method in brief: (§2)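 Visual 0-9 injury score (stand, vigor, malformation, size, chlorosis, appearance vs untreated) taken four to five weeks post-spray, averaged across repeat tests. Test plants about two weeks old; foliar spray of acetone/water (1:1) with 0.5% surfactant delivering ~0.0156-0.500 kg active/ha.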

[3] = tested on: ABUTH (Velvetleaf); experiment: Preemergence herbicidal evaluation; format: in vivo, Abutilon theophrasti; details: rated 4-5 weeks after treatment
Method in brief: (§3)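 Sown cups got a single aqueous acetone spray of test compound (roughly 0.0156–0.500 kg/ha) before seedlings emerged. Evaluation, 4–5 weeks on, used a 0–9 visual scale covering plant stand, vigor, size, malformation, chlorosis and general appearance compared with controls.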

[4] = tested on: SETVI (Foxtail, Green); experiment: Postemergence herbicidal evaluation; format: in vivo, Setaria viridis
Method in brief: as §2

[5] = tested on: ZEAMX (Corn, Field); experiment: Postemergence herbicidal evaluation; format: in vivo, Zea mays
Method in brief: as §2

[6] = tested on: IPOHE (Morningglory, Ivyleaf); experiment: Postemergence herbicidal evaluation; format: in vivo, Ipomoea hederacea
Method in brief: as §2

[7] = tested on: CASOB (Sicklepod); experiment: Preemergence herbicidal evaluation; format: in vivo, Cassia obtusifolia; details: rated 4-5 weeks after treatment
Method in brief: as §3

[8] = tested on: IPOHE (Morningglory, Ivyleaf); experiment: Preemergence herbicidal evaluation; format: in vivo, Ipomoea hederacea; details: rated 4-5 weeks after treatment
Method in brief: as §3

[9] = tested on: CYPIR (Rice Flatsedge); experiment: Postemergence weed control under flooded paddy conditions; format: in vivo, Cyperus iria; details: postemergence weeds, 3-4 weeks after treatment
Method in brief: as §1

[10] = tested on: ECHCG (Barnyardgrass); experiment: Preemergence herbicidal evaluation; format: in vivo, Echinochloa crus-galli; details: rated 4-5 weeks after treatment
Method in brief: as §3

[11] = tested on: AMBEL (Ragweed, Common); experiment: Preemergence herbicidal evaluation; format: in vivo, Ambrosia artemisifolia; details: rated 4-5 weeks after treatment
Method in brief: as §3

[12] = tested on: ABUTH (Velvetleaf); experiment: Postemergence herbicidal evaluation; format: in vivo, Abutilon theophrasti
Method in brief: as §2

[13] = tested on: ECHORC (Watergrass (Calif.)); experiment: Preemergence weed control under flooded paddy conditions; format: in vivo, Echinochloa oryzoides; details: rated 3-4 weeks after treatment
Method in brief: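 Ratings on a 0-9 visual scale cover stand, vigor, malformation, size, chlorosis and overall appearance relative to a control, taken three to four weeks post-treatment. Application was into flood water over freshly sown silt loam at roughly 0.0313 to 0.500 kg/ha.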

[14] = tested on: CYPSE (Flatsedge); experiment: as above; format: in vivo, Cyperus serotinus; details: rated 3-4 weeks after treatment
Method in brief: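 Using flooded silt loam (water 1.5 to 3 cm deep), seeds sown in the top 0.5 cm were exposed preemergence to compound pipetted into the flood at about 0.0313 to 0.500 kg/ha. Effects were scored 0-9 by eye three to four weeks later.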

CCOC(=O)CN1C(=O)C(Cc2ccccc2OC)SC1=Nc1cc(-n2c(=O)cc(C(F)(F)F)n(C)c2=O)c(F)cc1Cl (stereo not drawn) [Compound 37, Ethyl 2-{{2-chloro-5-[3,6-dihydro-3-methyl-2,6-dioxo-4-(trifluoromethyl)-1(2H)-pyrimidinyl]-4-fluorophenyl}imino}-5-(o-methoxybenzyl)-4-oxo-3-thiazolidineacetate]
4.0: Herbicidal rating ECHORC ([1]; rate 0.0313 kg/ha) | Postemergence herbicidal rating ZEAMX ([5]; Rate 0.0315 kg/ha) | Postemergence herbicidal rating ZEAMX ([5]; Rate 0.0630 kg/ha) | Herbicidal rating ECHORC ([13]; 0.0313 kg/ha)
7.0: Herbicidal rating ECHORC ([1]; rate 0.1250 kg/ha) | Herbicidal rating ECHORC ([1]; rate 0.2500 kg/ha) | Herbicidal rating ECHORC ([13]; 0.1250 kg/ha) | Herbicidal rating ECHORC ([13]; 0.2500 kg/ha)
6.0: Herbicidal rating ECHORC ([1]; rate 0.0625 kg/ha) | Herbicidal rating ECHORC ([13]; 0.0625 kg/ha)
4.5: Postemergence herbicidal rating GLXMAW ([2]; Rate 0.0158 kg/ha)
5.0: Postemergence herbicidal rating GLXMAW ([2]; Rate 0.0315 kg/ha) | Postemergence herbicidal rating GLXMAW ([2]; Rate 0.0630 kg/ha)
3.5: Postemergence herbicidal rating ZEAMX ([5]; Rate 0.0158 kg/ha)
3.0: Preemergence herbicidal rating ABUTH ([3]; rate 0.2500 kg/ha)
0.0: Preemergence herbicidal rating ABUTH ([3]; rate 0.1250 kg/ha) | Postemergence herbicidal rating SETVI ([4]; Rate 0.0158 kg/ha) | Postemergence herbicidal rating SETVI ([4]; Rate 0.0315 kg/ha) | Postemergence herbicidal rating SETVI ([4]; Rate 0.0630 kg/ha) | Preemergence herbicidal rating CASOB ([7]; rate 0.1250 kg/ha) | Preemergence herbicidal rating CASOB ([7]; rate 0.2500 kg/ha) | Preemergence herbicidal rating IPOHE ([8]; rate 0.1250 kg/ha) | Preemergence herbicidal rating IPOHE ([8]; rate 0.2500 kg/ha) | Herbicidal rating CYPIR ([9]; rate 0.0313 kg/ha) | Herbicidal rating CYPIR ([9]; rate 0.0625 kg/ha) | Herbicidal rating CYPIR ([9]; rate 0.1250 kg/ha) | Herbicidal rating CYPIR ([9]; rate 0.2500 kg/ha) | Preemergence herbicidal rating ECHCG ([10]; rate 0.1250 kg/ha) | Preemergence herbicidal rating ECHCG ([10]; rate 0.2500 kg/ha) | Preemergence herbicidal rating AMBEL ([11]; rate 0.1250 kg/ha) | Preemergence herbicidal rating AMBEL ([11]; rate 0.2500 kg/ha) | Herbicidal rating CYPSE ([14]; 0.0313 kg/ha) | Herbicidal rating CYPSE ([14]; 0.0625 kg/ha) | Herbicidal rating CYPSE ([14]; 0.1250 kg/ha) | Herbicidal rating CYPSE ([14]; 0.2500 kg/ha)
9.0: Postemergence herbicidal rating IPOHE ([6]; Rate 0.0158 kg/ha) | Postemergence herbicidal rating IPOHE ([6]; Rate 0.0315 kg/ha) | Postemergence herbicidal rating IPOHE ([6]; Rate 0.0630 kg/ha) | Postemergence herbicidal rating ABUTH ([12]; Rate 0.0158 kg/ha) | Postemergence herbicidal rating ABUTH ([12]; Rate 0.0315 kg/ha) | Postemergence herbicidal rating ABUTH ([12]; Rate 0.0630 kg/ha)

Cn1c(C(F)(F)F)cc(=O)n(-c2cc(N=C3NC(=O)CS3)c(Cl)cc2F)c1=O [Compound 39, 3-{4-Chloro-2-fluoro-5-[(4-oxo-2-thiazolidinylidene)amino]phenyl}-1-methyl-6-(trifluoromethyl)-2,4(1H,3H)-pyrimidinedione]
6.0: Preemergence herbicidal rating AMBEL ([11]; rate 0.1250 kg/ha)
9.0: Preemergence herbicidal rating ABUTH ([3]; rate 0.1250 kg/ha) | Preemergence herbicidal rating ABUTH ([3]; rate 0.2500 kg/ha) | Preemergence herbicidal rating IPOHE ([8]; rate 0.2500 kg/ha) | Postemergence herbicidal rating ABUTH ([12]; Rate 0.0315 kg/ha) | Postemergence herbicidal rating ABUTH ([12]; Rate 0.0630 kg/ha)
4.5: Postemergence herbicidal rating GLXMAW ([2]; Rate 0.0158 kg/ha)
1.0: Preemergence herbicidal rating ABUTH ([3]; rate 0.0625 kg/ha) | Preemergence herbicidal rating CASOB ([7]; rate 0.2500 kg/ha) | Preemergence herbicidal rating IPOHE ([8]; rate 0.0625 kg/ha) | Preemergence herbicidal rating IPOHE ([8]; rate 0.1250 kg/ha)
7.0: Postemergence herbicidal rating IPOHE ([6]; Rate 0.0315 kg/ha) | Postemergence herbicidal rating IPOHE ([6]; Rate 0.0630 kg/ha) | Preemergence herbicidal rating AMBEL ([11]; rate 0.2500 kg/ha)
0.0: Herbicidal rating ECHORC ([1]; rate 0.0313 kg/ha) | Herbicidal rating ECHORC ([1]; rate 0.0625 kg/ha) | Preemergence herbicidal rating ABUTH ([3]; rate 0.0156 kg/ha) | Preemergence herbicidal rating ABUTH ([3]; rate 0.0313 kg/ha) | Postemergence herbicidal rating SETVI ([4]; Rate 0.0158 kg/ha) | Postemergence herbicidal rating SETVI ([4]; Rate 0.0315 kg/ha) | Postemergence herbicidal rating SETVI ([4]; Rate 0.0630 kg/ha) | Preemergence herbicidal rating CASOB ([7]; rate 0.0313 kg/ha) | Preemergence herbicidal rating CASOB ([7]; rate 0.0625 kg/ha) | Preemergence herbicidal rating IPOHE ([8]; rate 0.0156 kg/ha) | Preemergence herbicidal rating IPOHE ([8]; rate 0.0313 kg/ha) | Herbicidal rating CYPIR ([9]; rate 0.0313 kg/ha) | Herbicidal rating CYPIR ([9]; rate 0.0625 kg/ha) | Herbicidal rating CYPIR ([9]; rate 0.1250 kg/ha) | Herbicidal rating CYPIR ([9]; rate 0.2500 kg/ha) | Preemergence herbicidal rating ECHCG ([10]; rate 0.0156 kg/ha) | Preemergence herbicidal rating ECHCG ([10]; rate 0.0313 kg/ha) | Preemergence herbicidal rating ECHCG ([10]; rate 0.0625 kg/ha) | Preemergence herbicidal rating ECHCG ([10]; rate 0.1250 kg/ha) | Preemergence herbicidal rating ECHCG ([10]; rate 0.2500 kg/ha) | Preemergence herbicidal rating AMBEL ([11]; rate 0.0156 kg/ha) | Preemergence herbicidal rating AMBEL ([11]; rate 0.0313 kg/ha) | Preemergence herbicidal rating AMBEL ([11]; rate 0.0625 kg/ha) | Postemergence herbicidal rating ABUTH ([12]; Rate 0.0158 kg/ha) | Herbicidal rating ECHORC ([13]; 0.0313 kg/ha) | Herbicidal rating ECHORC ([13]; 0.0625 kg/ha) | Herbicidal rating CYPSE ([14]; 0.0313 kg/ha) | Herbicidal rating CYPSE ([14]; 0.0625 kg/ha) | Herbicidal rating CYPSE ([14]; 0.1250 kg/ha) | Herbicidal rating CYPSE ([14]; 0.2500 kg/ha)
5.0: Postemergence herbicidal rating GLXMAW ([2]; Rate 0.0315 kg/ha) | Postemergence herbicidal rating GLXMAW ([2]; Rate 0.0630 kg/ha)
2.0: Herbicidal rating ECHORC ([1]; rate 0.1250 kg/ha) | Postemergence herbicidal rating IPOHE ([6]; Rate 0.0158 kg/ha) | Preemergence herbicidal rating CASOB ([7]; rate 0.1250 kg/ha) | Herbicidal rating ECHORC ([13]; 0.1250 kg/ha)
3.0: Herbicidal rating ECHORC ([1]; rate 0.2500 kg/ha) | Postemergence herbicidal rating ZEAMX ([5]; Rate 0.0158 kg/ha) | Postemergence herbicidal rating ZEAMX ([5]; Rate 0.0315 kg/ha) | Postemergence herbicidal rating ZEAMX ([5]; Rate 0.0630 kg/ha) | Herbicidal rating ECHORC ([13]; 0.2500 kg/ha)
